Target: T1, WT human SLACK (Homo sapiens, UniProt Q5JUK3)
T1 construct: host or cells: CHO-K1
T1 sequence (Q5JUK3 1-1235 isoform Q5JUK3-3): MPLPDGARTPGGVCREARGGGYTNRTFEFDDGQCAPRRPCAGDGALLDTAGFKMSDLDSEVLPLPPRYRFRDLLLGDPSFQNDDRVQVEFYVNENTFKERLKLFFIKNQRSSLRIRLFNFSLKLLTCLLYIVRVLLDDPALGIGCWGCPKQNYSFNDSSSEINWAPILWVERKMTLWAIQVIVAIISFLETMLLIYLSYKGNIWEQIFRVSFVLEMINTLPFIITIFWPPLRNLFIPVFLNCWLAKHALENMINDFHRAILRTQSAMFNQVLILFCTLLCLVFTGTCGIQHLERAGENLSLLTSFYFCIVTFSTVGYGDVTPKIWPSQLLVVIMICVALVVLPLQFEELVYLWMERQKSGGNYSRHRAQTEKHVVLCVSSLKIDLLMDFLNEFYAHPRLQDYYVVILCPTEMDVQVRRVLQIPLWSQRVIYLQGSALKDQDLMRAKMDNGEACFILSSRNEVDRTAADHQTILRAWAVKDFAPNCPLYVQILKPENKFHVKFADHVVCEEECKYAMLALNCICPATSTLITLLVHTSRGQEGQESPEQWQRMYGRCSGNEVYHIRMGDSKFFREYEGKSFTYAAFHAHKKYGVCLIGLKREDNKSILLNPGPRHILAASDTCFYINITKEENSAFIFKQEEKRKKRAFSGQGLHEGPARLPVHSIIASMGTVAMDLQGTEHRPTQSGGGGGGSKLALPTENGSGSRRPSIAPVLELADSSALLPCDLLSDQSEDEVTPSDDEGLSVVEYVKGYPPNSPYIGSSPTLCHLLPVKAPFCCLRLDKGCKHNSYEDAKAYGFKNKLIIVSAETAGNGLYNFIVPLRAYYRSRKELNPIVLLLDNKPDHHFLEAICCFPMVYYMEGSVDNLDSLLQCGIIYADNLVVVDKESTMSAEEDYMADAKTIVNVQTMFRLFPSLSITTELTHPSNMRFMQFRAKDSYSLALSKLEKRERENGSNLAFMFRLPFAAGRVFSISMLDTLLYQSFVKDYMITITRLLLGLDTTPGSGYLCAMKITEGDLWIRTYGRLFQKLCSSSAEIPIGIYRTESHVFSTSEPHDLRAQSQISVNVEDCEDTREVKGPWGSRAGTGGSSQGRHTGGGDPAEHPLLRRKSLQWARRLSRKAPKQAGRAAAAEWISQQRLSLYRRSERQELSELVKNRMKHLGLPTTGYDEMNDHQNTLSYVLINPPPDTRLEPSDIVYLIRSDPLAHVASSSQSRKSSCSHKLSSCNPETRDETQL
Assay: Whole-cell automated patch clamp (APC) in CHO-K1 cells stably expressing WT human SLACK
Type: cell-based
Settings: for IC50 / WT SLACK inhibition, result in words: APC; for IC50: CHO-K1 cells stably expressing WT human SLACK, averages (n ≥ 3); for SLACK Imax: maximum inhibition at 30 µM test compound standardized to VU0606170 (set at 100%), WT human SLACK; for WT SLACK inhibition, result in words: concentrations 0.125 to 30 µM; for Fold less potent than hit 10 (SLACK inhibition): ratio of WT SLACK APC IC50 to hit 10
Description: Using concentrations ranging from 0.125 to 30 µM in half-log steps, a concentration–response relationship was generated for each new analog using our APC assay in CHO-K1 cells stably expressing WT SLACK. A minimum of three cells, i.e., replicates, were collected per concentration for each analog.
Automated patch clamp recording was performed with a SyncroPatch 768 PE system (Nanion, Munich, Germany) as previously described. Whole-cell recordings were performed at room temperature. Cells were harvested by first washing with PBS without Mg^2+ or Ca^2+ (Gibco, Billings, MT, USA) to remove cell culture medium, followed by dissociation with TryPLE (Gibco, Billings, MT, USA). Cells were then resuspended and diluted to 200,000 cells/mL in external solution. External solution contained 105 mM NaCl, 4 mM KCl, 1 mM MgCl2, 5 mM CaCl2, 10 mM HEPES, 40 mM N-Methyl-D-glucamine chloride, titrated to pH 7.4 with NaOH and osmolarity of 300 mOsm/kg; internal solution contained 70 mM NaCl, 70 mM KF, 10 mM KCl, 5 mM EGTA, 5mM HEPES, titrated to a pH 7.2 with KOH and osmolarity of 295 mOsm/kg.
The APC protocol was set as following: Cells were held at […] −80 mV for 100 ms, then a ramp protocol was performed from −100 mV to 80 mV at 0.4 mV/ms, hold the cell at −80 mV for another 100 ms, then steps were performed at −20 mV, 0 mV, +20 mV, +40 mV, and +60 mV for 100 ms of each step. Whole-cell currents were measured at 0 mV and normalized to current after external buffer addition.

IC50 [nM] | SLACK Imax [%] | Fold less potent than hit 10 (SLACK inhibition) | SMILES | WT SLACK inhibition, result in words
1400 |  |  | CC(C)(Oc1ccc(Cl)cc1)C(=O)Nc1cnc(Oc2ccccc2F)nc1 [Analog 10] | 
1700 |  |  | CC(C)(Oc1ccc(Cl)cc1)C(=O)Nc1cnc(Oc2ccccc2)nc1 [Analog 15] | 
2100 |  |  | CC(C)(Oc1ccc(Cl)cc1)C(=O)Nc1cnc(Oc2cccc(F)c2)nc1 [Analog 16] | 
1800 | 102 |  | CC(C)(Oc1ccc(Cl)cc1)C(=O)Nc1cnc(Oc2ccc(F)cc2)nc1 [Analog 17] | 
1200 | 97 |  | CC(C)(Oc1ccc(Cl)cc1)C(=O)Nc1cnc(Oc2ccccc2Cl)nc1 [Analog 18] | 
1500 |  |  | CC(C)(Oc1ccc(Cl)cc1)C(=O)Nc1cnc(Oc2cccc(Cl)c2)nc1 [Analog 19] | 
1200 |  |  | CC(C)(Oc1ccc(Cl)cc1)C(=O)Nc1cnc(Oc2ccc(Cl)cc2)nc1 [Analog 20] | 
2900 |  |  | Cc1ccccc1Oc1ncc(NC(=O)C(C)(C)Oc2ccc(Cl)cc2)cn1 [Analog 21] | 
2300 |  |  | Cc1cccc(Oc2ncc(NC(=O)C(C)(C)Oc3ccc(Cl)cc3)cn2)c1 [Analog 22] | 
1700 |  |  | Cc1ccc(Oc2ncc(NC(=O)C(C)(C)Oc3ccc(Cl)cc3)cn2)cc1 [Analog 23] | 
1900 | 101 |  | CC(C)(Oc1ccc(Cl)cc1)C(=O)Nc1cnc(Oc2cccc(C(F)(F)F)c2)nc1 [Analog 25] | 
1500 | 101 |  | COc1ccccc1Oc1ncc(NC(=O)C(C)(C)Oc2ccc(Cl)cc2)cn1 [Analog 27] | 
2400 | 101 |  | COc1cccc(Oc2ncc(NC(=O)C(C)(C)Oc3ccc(Cl)cc3)cn2)c1 [Analog 28] | 
940 |  |  | CC(C)(Oc1ccc(Cl)cc1)C(=O)Nc1cnc(Oc2ccccc2C#N)nc1 [Analog 33] | 
1700 |  |  | CC(C)(Oc1ccc(Cl)cc1)C(=O)Nc1cnc(Oc2cccc(C#N)c2)nc1 [Analog 34] | 
1000 | 101 |  | CC(C)(Oc1ccc(Cl)cc1)C(=O)Nc1cnc(Oc2ccc(F)cc2F)nc1 [Analog 38] | 
1300 | 101 |  | CC(C)(Oc1ccc(Cl)cc1)C(=O)Nc1cnc(Oc2cc(F)ccc2F)nc1 [Analog 39] | 
1700 |  |  | CC(C)(Oc1ccc(Cl)cc1)C(=O)Nc1cnc(Oc2ccc(F)c(F)c2)nc1 [Analog 41] | 
1400 |  |  | CC(C)(Oc1ccc(Cl)cc1)C(=O)Nc1cnc(Oc2cc(F)cc(F)c2)nc1 [Analog 42] | 
580 | 91 |  | CC(C)(Oc1ccc(Cl)cc1)C(=O)Nc1cnc(Oc2c(F)cccc2Cl)nc1 [Analog 43] | 

Continued, molecule first:

SMILES | IC50 [nM] | SLACK Imax [%] | Fold less potent than hit 10 (SLACK inhibition) | WT SLACK inhibition, result in words
CC(C)(Oc1ccc(Cl)cc1)C(=O)Nc1cnc(Oc2ccccc2C(F)(F)F)nc1 [Analog 24] | 1700 |  |  | 
CC(C)(Oc1ccc(Cl)cc1)C(=O)Nc1cnc(Oc2ccc(C(F)(F)F)cc2)nc1 [Analog 26] | 1000 |  |  | 
COc1ccc(Oc2ncc(NC(=O)C(C)(C)Oc3ccc(Cl)cc3)cn2)cc1 [Analog 29] | 1800 |  |  | 
CC(C)(Oc1ccc(Cl)cc1)C(=O)Nc1cnc(Oc2ccccc2OC(F)(F)F)nc1 [Analog 30] | 1400 |  |  | 
CC(C)(Oc1ccc(Cl)cc1)C(=O)Nc1cnc(Oc2ccc(OC(F)(F)F)cc2)nc1 [Analog 32] | 1900 |  |  | 
CC(C)(Oc1ccc(Cl)cc1)C(=O)Nc1cnc(Oc2ccc(C#N)cc2)nc1 [Analog 35] | 1100 |  |  | 
CC(C)(Oc1ccc(Cl)cc1)C(=O)Nc1cnc(Oc2ccc(S(C)(=O)=O)cc2)nc1 [Analog 36] | 1100 |  |  | 
CC(C)(Oc1ccc(Cl)cc1)C(=O)Nc1cnc(Oc2ccc(C(N)=O)cc2)nc1 [Analog 37] | > 10000 | 110 |  | only a weak inhibitor
CC(C)(Oc1ccccc1)C(=O)Nc1cnc(Oc2ccccc2F)nc1 [Analog 44] | > 10000 | 66 |  | only weakly active
CC(C)(Oc1ccccc1F)C(=O)Nc1cnc(Oc2ccccc2F)nc1 [Analog 45] | > 10000 | 25 |  | only weak inhibitors
Cc1ccccc1OC(C)(C)C(=O)Nc1cnc(Oc2ccccc2F)nc1 [Analog 50] | 2900 |  | approximately 2 fold | 
Cc1cccc(OC(C)(C)C(=O)Nc2cnc(Oc3ccccc3F)nc2)c1 [Analog 51] |  |  |  | inactive up to the top concentration of 30 µM
Cc1ccc(OC(C)(C)C(=O)Nc2cnc(Oc3ccccc3F)nc2)cc1 [Analog 52] | 7100 | 97 |  | 
CC(C)(Oc1ccccc1C(F)(F)F)C(=O)Nc1cnc(Oc2ccccc2F)nc1 [Analog 53] |  |  |  | inactive up to the top concentration of 30 µM
CC(C)(Oc1cccc(C(F)(F)F)c1)C(=O)Nc1cnc(Oc2ccccc2F)nc1 [Analog 54] | 3700 | 99 |  | 
CC(C)(Oc1ccc(C(F)(F)F)cc1)C(=O)Nc1cnc(Oc2ccccc2F)nc1 [Analog 55] | 2800 | 101 | approximately 2 fold | 
CC(C)(Oc1ccccc1OC(F)(F)F)C(=O)Nc1cnc(Oc2ccccc2F)nc1 [Analog 56] |  |  |  | inactive up to the top concentration of 30 µM
CC(C)(Oc1cccc(OC(F)(F)F)c1)C(=O)Nc1cnc(Oc2ccccc2F)nc1 [Analog 57] | 4600 | 98 |  | 
CC(C)(Oc1ccc(OC(F)(F)F)cc1)C(=O)Nc1cnc(Oc2ccccc2F)nc1 [Analog 58] | > 10000 | 104 |  | only weak inhibitors
CC(C)(Oc1ccc(C#N)cc1)C(=O)Nc1cnc(Oc2ccccc2F)nc1 [Analog 59] | > 10000 | 109 |  | only weak inhibitors
CC(C)(Oc1ccc(S(C)(=O)=O)cc1)C(=O)Nc1cnc(Oc2ccccc2F)nc1 [Analog 60] |  |  |  | inactive up to the top concentration of 30 µM
CC(C)(Oc1ccc(C(N)=O)cc1)C(=O)Nc1cnc(Oc2ccccc2F)nc1 [Analog 61] |  |  |  | inactive up to the top concentration of 30 µM
CC(C)(Oc1ccc(S(F)(F)(F)(F)F)cc1)C(=O)Nc1cnc(Oc2ccccc2F)nc1 [Analog 62] | 4100 |  |  | 
CC(C)(Oc1ccc(Cl)cc1)C(=O)Nc1cnc(Sc2ccccc2F)nc1 [Analog 63] | 890 | 101 |  | 
CC(C)(Oc1ccc(Cl)cc1)C(=O)Nc1cnc(Nc2ccccc2F)nc1 [Analog 64] |  |  |  | not tolerated
CN(c1ncc(NC(=O)C(C)(C)Oc2ccc(Cl)cc2)cn1)c1ccccc1F [Analog 65] | 2100 |  |  | 
CN(c1ccc(S(C)(=O)=O)cc1)c1ncc(NC(=O)C(C)(C)Oc2ccc(Cl)cc2)cn1 [Analog 67] | 1400 | 101 |  | 
CC(C)(Sc1ccc(Cl)cc1)C(=O)Nc1cnc(Oc2ccccc2F)nc1 [Analog 68] | 4100 |  | approximately 3 fold | 
